12 compounds from US10947271B2, “Antibacterial agents” (THE UNIVERSITY OF QUEENSLAND, priority 2014, dated 2021) can be followed below.

Holding throughout (assay type): cell-based
Details in all cases: 24 h incubation, visual reading

Test [1] relates to Streptococcus pneumoniae MDR ATCC 700677. The test can be described thus: MIC assay, S. pneumoniae MDR ATCC 700677. Put shortly: (§1)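 Mid-log cultures in MHB were added at 5×10e5 CFU/mL to compounds diluted twofold from 8 to 0.003 μg/ml. Visual inspection after 24 h incubation at 37° C. gave the MIC, the lowest concentration without visible growth.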
In test [2] the test system is Enterococcus faecium MDR Van A ATCC 51559. Nature of the test: MIC assay, E. faecium MDR Van A ATCC 51559. The method in brief: as §1
Test [3] concerns Staphylococcus aureus MRSA ATCC 43300. Nature of the test: MIC assay, S. aureus MRSA ATCC 43300. Put shortly:
as §1

For `CNC(=O)[C@H](CCCCNC(=O)[C@H]1NC(=O)[C@H]2NC(=O)[C@H](NC(=O)[C@@H]3NC(=O)[C@H](CC(N)=O)NC(=O)[C@H](NC(=O)[C@@H](CC(C)C)NC)[C@H](O)c4ccc(c(Cl)c4)Oc4cc3cc(c4O[C@@H]3O[C@H](CO)[C@@H](O)[C@H](O)[C@H]3O)Oc3ccc(cc3Cl)[C@H]2O)c2ccc(O)c(c2)-c2c(O)cc(O)cc21)NC(=O)[C@H](CCCCN)NC(=O)[C@H](CCCCN)NC(=O)[C@H](CCCCNC(=O)CCCOc1ccccc1)NC(=O)CCCOc1ccccc1` [MCC_000604], in test [1], the “Minimum Inhibitory Concentration (MIC) S. pneumoniae ATCC 700677” value was “xx (xx = 1-4)”. The “Minimum Inhibitory Concentration (MIC) E. faecium ATCC51559” value in test [2] is given as “x (x = >4)”. Besides, the “Minimum Inhibitory Concentration (MIC) Staph. aureus ATCC43300” value in test [3] is on record as “xx (xx = 1-4)”.
In the case of `CCCCCCCCCCCCCC(=O)N[C@@H](CCCCN)C(=O)N[C@@H](CCCCNC(=O)[C@H]1NC(=O)[C@H]2NC(=O)[C@H](NC(=O)[C@@H]3NC(=O)[C@H](CC(N)=O)NC(=O)[C@H](NC(=O)[C@@H](CC(C)C)NC)[C@H](O)c4ccc(c(Cl)c4)Oc4cc3cc(c4O[C@@H]3O[C@H](CO)[C@@H](O)[C@H](O)[C@H]3O[C@H]3C[C@](C)(N)[C@H](O)[C@H](C)O3)Oc3ccc(cc3Cl)[C@H]2O)c2ccc(O)c(c2)-c2c(O)cc(O)cc21)C(=O)NC` [MCC_000627], in test [1], the “Minimum Inhibitory Concentration (MIC) S. pneumoniae ATCC 700677” value was “xxxxx (xxxxx = <0.01)”. For the same compound, in test [2], the “Minimum Inhibitory Concentration (MIC) E. faecium ATCC51559” value is “xx (xx = 1-4)”. Moreover, the “Minimum Inhibitory Concentration (MIC) Staph. aureus ATCC43300” value in test [3] is “xxxxx (xxxxx = <0.01)”.
As to `CCCCCCCCCCCCCC(=O)NC(CCCCN)C(=O)NC(CCCCN)C(=O)NC(CCCCN)C(=O)NC(CCCCNC(=O)C1NC(=O)C2NC(=O)C(NC(=O)C3NC(=O)C(CC(N)=O)NC(=O)C(NC(=O)C(CC(C)C)NC)C(O)c4ccc(c(Cl)c4)Oc4cc3cc(c4OC3OC(CO)C(O)C(O)C3OC3CC(C)(N)C(O)C(C)O3)Oc3ccc(cc3Cl)C2O)c2ccc(O)c(c2)-c2c(O)cc(O)cc21)C(=O)OC` (stereo not drawn) [MCC_000635], the “Minimum Inhibitory Concentration (MIC) S. pneumoniae ATCC 700677” value in test [1] was “xxxxx (xxxxx = <0.01)”. Moreover, the “Minimum Inhibitory Concentration (MIC) E. faecium ATCC51559” value in test [2] is given as “xxxxx (xxxxx = <0.01)”. Moreover, the “Minimum Inhibitory Concentration (MIC) Staph. aureus ATCC43300” value in test [3] is reported as “xxxxx (xxxxx = <0.01)”.
As for `CNC(=O)[C@H](CCCCNC(=O)[C@H]1NC(=O)[C@H]2NC(=O)[C@H](NC(=O)[C@@H]3NC(=O)[C@H](CC(N)=O)NC(=O)[C@H](NC(=O)[C@@H](CC(C)C)NC)[C@H](O)c4ccc(c(Cl)c4)Oc4cc3cc(c4O[C@@H]3O[C@H](CO)[C@@H](O)[C@H](O)[C@H]3O[C@H]3C[C@](C)(N)[C@H](O)[C@H](C)O3)Oc3ccc(cc3Cl)[C@H]2O)c2ccc(O)c(c2)-c2c(O)cc(O)cc21)NC(=O)[C@H](CCCCN)NC(=O)[C@H](CCCCN)NC(=O)CNC(=O)c1ccc(Oc2ccccc2)cc1` [MCC_000647], the “Minimum Inhibitory Concentration (MIC) S. pneumoniae ATCC 700677” value in test [1] is on record as “xxx (xxx = 0.1-<1)”. Further, in test [2], the “Minimum Inhibitory Concentration (MIC) E. faecium ATCC51559” value was “x (x = >4)”. Besides, in test [3], the “Minimum Inhibitory Concentration (MIC) Staph. aureus ATCC43300” value is recorded as “xxx (xxx = 0.1-<1)”.
Turning to `CNC(=O)[C@H](CCCCNC(=O)[C@H]1NC(=O)[C@H]2NC(=O)[C@H](NC(=O)[C@@H]3NC(=O)[C@H](CC(N)=O)NC(=O)[C@H](NC(=O)[C@@H](CC(C)C)NC)[C@H](O)c4ccc(c(Cl)c4)Oc4cc3cc(c4O[C@@H]3O[C@H](CO)[C@@H](O)[C@H](O)[C@H]3O)Oc3ccc(cc3Cl)[C@H]2O)c2ccc(O)c(c2)-c2c(O)cc(O)cc21)NC(=O)[C@H](CCCCN)NC(=O)[C@H](CCCCN)NC(=O)[C@H](CCCCNC(=O)c1ccc(Oc2ccc(F)cc2)cc1)NC(=O)c1ccc(Oc2ccc(F)cc2)cc1` [MCC_000651], in test [1], the “Minimum Inhibitory Concentration (MIC) S. pneumoniae ATCC 700677” value is recorded as “xxxx (xxxx = 0.01-<0.1)”. Further, the “Minimum Inhibitory Concentration (MIC) E. faecium ATCC51559” value in test [2] is “xx (xx = 1-4)”. The “Minimum Inhibitory Concentration (MIC) Staph. aureus ATCC43300” value in test [3] is listed as “xxxxx (xxxxx = <0.01)”.
On to `CNC(=O)[C@H](CCCCNC(=O)[C@H]1NC(=O)[C@H]2NC(=O)[C@H](NC(=O)[C@@H]3NC(=O)[C@H](CC(N)=O)NC(=O)[C@H](NC(=O)[C@@H](CC(C)C)NC)[C@H](O)c4ccc(c(Cl)c4)Oc4cc3cc(c4O[C@@H]3O[C@H](CO)[C@@H](O)[C@H](O)[C@H]3O[C@H]3C[C@](C)(N)[C@H](O)[C@H](C)O3)Oc3ccc(cc3Cl)[C@H]2O)c2ccc(O)c(c2)-c2c(O)cc(O)cc21)NC(=O)[C@H](CCCCN)NC(=O)[C@H](CCCCN)NC(=O)[C@H](CCCCNC(=O)Cc1ccc(-c2ccccc2)cc1)NC(=O)Cc1ccc(-c2ccccc2)cc1` [MCC_000652], for which the “Minimum Inhibitory Concentration (MIC) S. pneumoniae ATCC 700677” value in test [1] is “xxxxx (xxxxx = <0.01)”. In test [2], the “Minimum Inhibitory Concentration (MIC) E. faecium ATCC51559” value was “xxx (xxx = 0.1-<1)”. Further, in test [3], the “Minimum Inhibitory Concentration (MIC) Staph. aureus ATCC43300” value is reported as “xxxxx (xxxxx = <0.01)”.
In the case of `CNC(=O)[C@H](CCCCNC(=O)[C@H]1NC(=O)[C@H]2NC(=O)[C@H](NC(=O)[C@@H]3NC(=O)[C@H](CC(N)=O)NC(=O)[C@H](NC(=O)[C@@H](CC(C)C)NC)[C@H](O)c4ccc(c(Cl)c4)Oc4cc3cc(c4O[C@@H]3O[C@H](CO)[C@@H](O)[C@H](O)[C@H]3O)Oc3ccc(cc3Cl)[C@H]2O)c2ccc(O)c(c2)-c2c(O)cc(O)cc21)NC(=O)[C@H](CCCCN)NC(=O)[C@H](CCCCN)NC(=O)[C@H](CCCCNC(=O)Cc1ccc(-c2ccccc2)cc1)NC(=O)Cc1ccc(-c2ccccc2)cc1` [MCC_000653], the “Minimum Inhibitory Concentration (MIC) S. pneumoniae ATCC 700677” value in test [1] is listed as “xxxx (xxxx = 0.01-<0.1)”. In addition, in test [2], the “Minimum Inhibitory Concentration (MIC) E. faecium ATCC51559” value was “xx (xx = 1-4)”. The “Minimum Inhibitory Concentration (MIC) Staph. aureus ATCC43300” value in test [3] was “xxxx (xxxx = 0.01-<0.1)”.
Turning to `CCCCCCCC(=O)NCCCC[C@H](NC(=O)CCCCCCC)C(=O)N[C@@H](CCCCN)C(=O)N[C@@H](CCCCN)C(=O)N[C@@H](CCCCNC(=O)[C@H]1NC(=O)[C@H]2NC(=O)[C@H](NC(=O)[C@@H]3NC(=O)[C@H](CC(N)=O)NC(=O)[C@H](NC(=O)[C@@H](CC(C)C)NC)[C@H](O)c4ccc(c(Cl)c4)Oc4cc3cc(c4O[C@@H]3O[C@H](CO)[C@@H](O)[C@H](O)[C@H]3O[C@H]3C[C@](C)(N)[C@H](O)[C@H](C)O3)Oc3ccc(cc3Cl)[C@H]2O)c2ccc(O)c(c2)-c2c(O)cc(O)cc21)C(=O)NC` [MCC_000654], in test [1], the “Minimum Inhibitory Concentration (MIC) S. pneumoniae ATCC 700677” value is reported as “xxxx (xxxx = 0.01-<0.1)”. Further, in test [2], the “Minimum Inhibitory Concentration (MIC) E. faecium ATCC51559” value is reported as “xx (xx = 1-4)”. The “Minimum Inhibitory Concentration (MIC) Staph. aureus ATCC43300” value in test [3] was “xxxxx (xxxxx = <0.01)”.
For `CNC(=O)[C@H](CCCCNC(=O)[C@H]1NC(=O)[C@H]2NC(=O)[C@H](NC(=O)[C@@H]3NC(=O)[C@H](CC(N)=O)NC(=O)[C@H](NC(=O)[C@@H](CC(C)C)NC)[C@H](O)c4ccc(c(Cl)c4)Oc4cc3cc(c4O[C@@H]3O[C@H](CO)[C@@H](O)[C@H](O)[C@H]3O[C@H]3C[C@](C)(N)[C@H](O)[C@H](C)O3)Oc3ccc(cc3Cl)[C@H]2O)c2ccc(O)c(c2)-c2c(O)cc(O)cc21)NC(=O)[C@H](CCCCN)NC(=O)[C@H](CCCCN)NS(=O)(=O)c1ccc(C)cc1` [MCC_000764], in that order: “xx (xx = 1-4)”, “x (x = >4)” and “xx (xx = 1-4)”.
With `CNC(=O)[C@H](CCCCNC(=O)[C@H]1NC(=O)[C@H]2NC(=O)[C@H](NC(=O)[C@@H]3NC(=O)[C@H](CC(N)=O)NC(=O)[C@H](NC(=O)[C@@H](CC(C)C)NC)[C@H](O)c4ccc(c(Cl)c4)Oc4cc3cc(c4O[C@@H]3O[C@H](CO)[C@@H](O)[C@H](O)[C@H]3O[C@H]3C[C@](C)(N)[C@H](O)[C@H](C)O3)Oc3ccc(cc3Cl)[C@H]2O)c2ccc(O)c(c2)-c2c(O)cc(O)cc21)NC(=O)[C@@H](CCCCN)NC(=O)[C@@H](CCCCN)NC(=O)[C@H](CCCCNC(=O)c1ccc(Oc2ccccc2)cc1)NC(=O)c1ccc(Oc2ccccc2)cc1` [MCC_000766], the “Minimum Inhibitory Concentration (MIC) S. pneumoniae ATCC 700677” value in test [1] is recorded as “xxxxx (xxxxx = <0.01)”. Further, in test [2], the “Minimum Inhibitory Concentration (MIC) E. faecium ATCC51559” value is reported as “xx (xx = 1-4)”. Besides, the “Minimum Inhibitory Concentration (MIC) Staph. aureus ATCC43300” value in test [3] is given as “xxxxx (xxxxx = <0.01)”.
Consider `CCCCCCCCCCCCCC(=O)NCCCC[C@H](NC(=O)CCCCCCCCCCCCC)C(=O)N[C@@H](CCCCN)C(=O)N[C@@H](CCCCN)C(=O)N[C@@H](CCCCNC(=O)[C@H]1NC(=O)[C@H]2NC(=O)[C@H](NC(=O)[C@@H]3NC(=O)[C@H](CC(N)=O)NC(=O)[C@H](NC(=O)[C@@H](CC(C)C)NC)[C@H](O)c4ccc(c(Cl)c4)Oc4cc3cc(c4O[C@@H]3O[C@H](CO)[C@@H](O)[C@H](O)[C@H]3O[C@H]3C[C@](C)(N)[C@H](O)[C@H](C)O3)Oc3ccc(cc3Cl)[C@H]2O)c2ccc(O)c(c2)-c2c(O)cc(O)cc21)C(=O)NC` [MCC_000771], for which the “Minimum Inhibitory Concentration (MIC) S. pneumoniae ATCC 700677” value in test [1] is recorded as “x (x = >4)”. The “Minimum Inhibitory Concentration (MIC) E. faecium ATCC51559” value in test [2] was “x (x = >4)”. Besides, in test [3], the “Minimum Inhibitory Concentration (MIC) Staph. aureus ATCC43300” value is given as “x (x = >4)”.
As for `CCCCCCC(CCCC)C(=O)NCCCC[C@H](NC(=O)C(CCCC)CCCCCC)C(=O)N[C@@H](CCCCN)C(=O)N[C@@H](CCCCN)C(=O)N[C@@H](CCCCNC(=O)[C@H]1NC(=O)[C@H]2NC(=O)[C@H](NC(=O)[C@@H]3NC(=O)[C@H](CC(N)=O)NC(=O)[C@H](NC(=O)[C@@H](CC(C)C)NC)[C@H](O)c4ccc(c(Cl)c4)Oc4cc3cc(c4O[C@@H]3O[C@H](CO)[C@@H](O)[C@H](O)[C@H]3O[C@H]3C[C@](C)(N)[C@H](O)[C@H](C)O3)Oc3ccc(cc3Cl)[C@H]2O)c2ccc(O)c(c2)-c2c(O)cc(O)cc21)C(=O)NC` (stereo partly drawn) [MCC_000773], the “Minimum Inhibitory Concentration (MIC) S. pneumoniae ATCC 700677” value in test [1] was “xxxx (xxxx = 0.01-<0.1)”. Further, in test [2], the “Minimum Inhibitory Concentration (MIC) E. faecium ATCC51559” value is recorded as “xxx (xxx = 0.1-<1)”. For the same compound, the “Minimum Inhibitory Concentration (MIC) Staph. aureus ATCC43300” value in test [3] is “xxxx (xxxx = 0.01-<0.1)”.
